The results in this text go back to ChEMBL document CHEMBL1201862, “PubChem BioAssay data set” (2004).

Broadly, the IC50 is the concentration needed to halve the response being measured. Usually EC50 stands for the concentration at which the effect is half-maximal. As a reminder, the Ki is the equilibrium dissociation constant of an inhibitor or competing ligand from its target.

The target of assay [1] is T1, Voltage-gated N-type calcium channel alpha-1B subunit/Amyloid beta A4 precursor protein-binding family A member 1 (Homo sapiens, UniProt Q00975+Q02410). The format is protein assay.
T1 sequence (Q00975 whole entry): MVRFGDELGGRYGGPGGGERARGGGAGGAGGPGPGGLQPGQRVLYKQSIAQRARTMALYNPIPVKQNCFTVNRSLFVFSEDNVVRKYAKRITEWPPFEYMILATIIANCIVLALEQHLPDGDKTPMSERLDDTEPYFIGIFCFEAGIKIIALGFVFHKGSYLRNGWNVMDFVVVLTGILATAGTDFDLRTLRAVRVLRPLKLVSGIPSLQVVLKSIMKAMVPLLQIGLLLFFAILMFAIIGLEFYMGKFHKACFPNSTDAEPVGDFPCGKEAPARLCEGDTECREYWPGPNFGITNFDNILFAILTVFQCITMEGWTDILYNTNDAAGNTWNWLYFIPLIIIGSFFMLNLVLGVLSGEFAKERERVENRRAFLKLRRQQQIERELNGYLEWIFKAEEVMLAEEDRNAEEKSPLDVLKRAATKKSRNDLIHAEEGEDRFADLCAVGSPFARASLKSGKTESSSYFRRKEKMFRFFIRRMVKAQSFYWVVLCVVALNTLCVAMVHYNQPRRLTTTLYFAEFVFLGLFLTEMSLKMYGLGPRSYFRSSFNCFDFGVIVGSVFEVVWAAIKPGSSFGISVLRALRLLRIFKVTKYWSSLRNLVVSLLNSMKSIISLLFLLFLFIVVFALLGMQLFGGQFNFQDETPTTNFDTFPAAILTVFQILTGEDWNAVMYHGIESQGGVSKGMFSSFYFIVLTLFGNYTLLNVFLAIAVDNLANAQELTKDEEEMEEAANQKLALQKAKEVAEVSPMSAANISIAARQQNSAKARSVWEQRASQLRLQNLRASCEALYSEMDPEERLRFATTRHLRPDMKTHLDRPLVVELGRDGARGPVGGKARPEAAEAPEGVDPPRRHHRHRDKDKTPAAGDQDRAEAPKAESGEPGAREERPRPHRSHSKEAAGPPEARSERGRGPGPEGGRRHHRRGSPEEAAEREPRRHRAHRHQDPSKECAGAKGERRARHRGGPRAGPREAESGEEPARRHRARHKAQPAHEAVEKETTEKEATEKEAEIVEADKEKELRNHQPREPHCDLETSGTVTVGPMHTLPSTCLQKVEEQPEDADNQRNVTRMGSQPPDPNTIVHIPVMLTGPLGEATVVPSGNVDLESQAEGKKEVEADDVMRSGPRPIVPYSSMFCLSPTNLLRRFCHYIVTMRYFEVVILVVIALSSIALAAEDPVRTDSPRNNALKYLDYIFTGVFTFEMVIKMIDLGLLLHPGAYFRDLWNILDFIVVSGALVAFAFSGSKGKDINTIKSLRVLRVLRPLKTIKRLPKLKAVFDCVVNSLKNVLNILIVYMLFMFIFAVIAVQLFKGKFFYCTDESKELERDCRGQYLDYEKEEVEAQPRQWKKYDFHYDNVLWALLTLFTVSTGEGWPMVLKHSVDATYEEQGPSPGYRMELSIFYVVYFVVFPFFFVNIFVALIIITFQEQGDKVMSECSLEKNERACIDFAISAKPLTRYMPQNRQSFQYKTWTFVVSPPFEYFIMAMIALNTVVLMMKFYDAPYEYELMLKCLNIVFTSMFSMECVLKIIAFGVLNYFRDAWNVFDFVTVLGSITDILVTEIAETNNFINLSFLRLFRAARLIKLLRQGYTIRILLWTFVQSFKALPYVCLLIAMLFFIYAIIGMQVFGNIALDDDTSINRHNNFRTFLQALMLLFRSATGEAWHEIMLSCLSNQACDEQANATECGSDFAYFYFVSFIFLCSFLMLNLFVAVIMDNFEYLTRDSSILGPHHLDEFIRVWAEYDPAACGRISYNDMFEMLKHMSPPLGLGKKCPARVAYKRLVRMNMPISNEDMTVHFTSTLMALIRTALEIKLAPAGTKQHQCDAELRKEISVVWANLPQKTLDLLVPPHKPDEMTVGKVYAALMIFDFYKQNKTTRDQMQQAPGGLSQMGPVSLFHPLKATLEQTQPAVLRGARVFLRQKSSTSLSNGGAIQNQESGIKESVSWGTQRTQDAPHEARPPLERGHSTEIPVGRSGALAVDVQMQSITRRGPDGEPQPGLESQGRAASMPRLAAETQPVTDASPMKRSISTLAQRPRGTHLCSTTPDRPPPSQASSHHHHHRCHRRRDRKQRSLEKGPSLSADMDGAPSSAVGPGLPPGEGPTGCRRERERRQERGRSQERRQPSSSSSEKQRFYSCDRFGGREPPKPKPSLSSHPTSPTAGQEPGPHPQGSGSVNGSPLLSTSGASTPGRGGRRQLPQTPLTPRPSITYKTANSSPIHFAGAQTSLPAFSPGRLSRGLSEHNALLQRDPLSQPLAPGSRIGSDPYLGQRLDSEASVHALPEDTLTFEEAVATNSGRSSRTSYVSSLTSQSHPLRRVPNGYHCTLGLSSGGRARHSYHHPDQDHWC
T1 sequence (Q02410 whole entry): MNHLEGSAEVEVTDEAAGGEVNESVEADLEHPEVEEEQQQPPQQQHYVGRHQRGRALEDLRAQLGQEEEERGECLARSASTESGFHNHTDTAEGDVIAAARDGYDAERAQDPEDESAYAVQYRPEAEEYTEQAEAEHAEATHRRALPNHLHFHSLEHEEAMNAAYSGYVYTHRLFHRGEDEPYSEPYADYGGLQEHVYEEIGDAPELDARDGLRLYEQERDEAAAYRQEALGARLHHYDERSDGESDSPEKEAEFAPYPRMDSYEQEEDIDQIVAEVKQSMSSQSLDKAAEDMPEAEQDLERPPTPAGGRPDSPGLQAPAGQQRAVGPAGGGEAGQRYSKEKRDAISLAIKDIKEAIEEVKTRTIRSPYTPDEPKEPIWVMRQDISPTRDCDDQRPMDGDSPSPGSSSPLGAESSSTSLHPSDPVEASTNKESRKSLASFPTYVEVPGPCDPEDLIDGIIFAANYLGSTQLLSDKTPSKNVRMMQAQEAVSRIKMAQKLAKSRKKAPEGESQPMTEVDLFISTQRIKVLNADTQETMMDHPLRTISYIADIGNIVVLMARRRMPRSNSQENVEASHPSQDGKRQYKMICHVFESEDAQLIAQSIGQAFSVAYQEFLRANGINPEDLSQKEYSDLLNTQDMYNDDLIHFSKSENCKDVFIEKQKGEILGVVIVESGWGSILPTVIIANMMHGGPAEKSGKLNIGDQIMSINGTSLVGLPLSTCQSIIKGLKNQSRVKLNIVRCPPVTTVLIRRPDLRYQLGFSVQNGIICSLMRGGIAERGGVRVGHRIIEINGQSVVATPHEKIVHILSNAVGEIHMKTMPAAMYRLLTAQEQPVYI
For assay [2], the target named is T2, Zinc finger protein mex-5 (Caenorhabditis elegans, UniProt Q9XUB2).
T2 sequence (Q9XUB2 whole entry): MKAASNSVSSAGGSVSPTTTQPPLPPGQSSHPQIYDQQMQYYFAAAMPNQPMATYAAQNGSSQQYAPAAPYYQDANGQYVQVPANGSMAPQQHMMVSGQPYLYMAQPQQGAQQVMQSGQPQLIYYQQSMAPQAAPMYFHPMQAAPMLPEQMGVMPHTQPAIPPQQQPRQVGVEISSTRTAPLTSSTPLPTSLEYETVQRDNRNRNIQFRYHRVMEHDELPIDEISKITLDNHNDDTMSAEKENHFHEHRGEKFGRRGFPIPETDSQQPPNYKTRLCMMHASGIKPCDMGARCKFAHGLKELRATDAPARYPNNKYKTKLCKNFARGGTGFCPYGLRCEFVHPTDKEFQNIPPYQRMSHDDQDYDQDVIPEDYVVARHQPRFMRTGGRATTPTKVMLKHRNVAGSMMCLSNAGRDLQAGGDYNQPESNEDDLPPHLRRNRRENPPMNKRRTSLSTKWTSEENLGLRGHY
The assay is described as follows: potency of MEX-5 RNA-binding blockers – biochemical, C. elegans, fluorescence polarization, dose response (AID 1960).

The target of assay [3] is Heat shock 70 kDa protein 1A (Homo sapiens, UniProt P0DMV8). The assay is described as follows: inhibition of Hsp70 binding activity – biochemical, fluorescence polarization, SAR follow-up (AID 1072). In general terms: Polarisation of emitted light reports the rotation of a fluorescent probe.
For assay [4], the target named is Runt-related transcription factor 1/Core-binding factor subunit beta (Homo sapiens, UniProt Q01196+Q13951). The assay is described as follows: Runt domain/CBFb-SMMHC interaction disruptors – biochemical, TR-FRET (AID 1438). It counts as protein assay.
Assay [5] concerns the target T1, Voltage-gated N-type calcium channel alpha-1B subunit/Amyloid beta A4 precursor protein-binding family A member 1. The format is protein assay. The source holds these as a separate data set.
In a further assay the target is T3, Streptokinase A (Streptococcus pyogenes serotype M1, UniProt P10520).
T3 sequence (P10520 whole entry): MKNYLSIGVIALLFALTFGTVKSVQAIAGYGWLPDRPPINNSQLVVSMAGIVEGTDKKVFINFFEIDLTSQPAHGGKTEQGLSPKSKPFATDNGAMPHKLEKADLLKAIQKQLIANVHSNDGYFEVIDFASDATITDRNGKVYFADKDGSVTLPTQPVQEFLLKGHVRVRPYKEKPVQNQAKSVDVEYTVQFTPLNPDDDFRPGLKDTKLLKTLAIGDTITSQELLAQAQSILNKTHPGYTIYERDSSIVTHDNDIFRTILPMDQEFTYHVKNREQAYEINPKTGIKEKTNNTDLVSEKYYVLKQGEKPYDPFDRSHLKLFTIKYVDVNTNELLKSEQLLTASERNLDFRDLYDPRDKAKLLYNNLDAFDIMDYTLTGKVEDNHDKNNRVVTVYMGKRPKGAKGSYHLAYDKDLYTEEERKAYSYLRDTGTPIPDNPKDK
The assay is described as follows: viability-normalized secreted streptokinase activity reduction – plasminogen activation absorbance, OD405, dose response (AID 1914).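 Further: secreted streptokinase activity via plasminogen activation per viability signal from cell pellet.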 It counts as functional, Streptococcus pyogenes M1 GAS.

Another assay concerns the target Nonstructural protein 1 (Influenza A virus, UniProt Q194T2). It counts as functional, Influenza A virus (A/California/07/2009(H1N1)).
Another assay has as its target Beta-galactosidase (Escherichia coli, UniProt Q8VNN2). The assay is described as follows: detection-enzyme interference by beta-gal modulators – biochemical, E. coli enzyme, set 3, artefact control for CCR6 antagonist project, dose response (AID 504712). It counts as functional.
Assay [6] can be described thus: DRD fibroblast viability loss – cell-based, non-viral oncogenic, luminescence, dose response (AID 1934). Particulars: Homo sapiens. It counts as functional.
Assay [7] has as its target Serine/threonine-protein kinase 17A (Homo sapiens, UniProt Q9UEE5). The format is functional.
Assay [8] deals with MAP/microtubule affinity-regulating kinase 4 (Homo sapiens, UniProt Q96L34). The assay is described as follows: Navigating the Kinome. Panel member name: MARK4. The format is functional.
The target in assay [9] is Inhibitor of nuclear factor kappa-B kinase subunit beta (Homo sapiens, UniProt O14920). The format is functional.
Assay [10] concerns the target Tyrosine-protein kinase BTK (Homo sapiens, UniProt Q06187). It counts as functional.
Assay [11] concerns the target MAP kinase-activated protein kinase 2 (Homo sapiens, UniProt P49137). The format is functional.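 Further: measured as one member of a kinome-wide kinase panel.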
The target in assay [12] is 3-phosphoinositide-dependent protein kinase 1 (Homo sapiens, UniProt O15530). The format is functional.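 Further: value comes from the Navigating the Kinome panel, PDPK1 member.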
Assay [13] has as its target Casein kinase II subunit alpha (Homo sapiens, UniProt P68400). It counts as functional.
Assay [14] concerns the target Serine/threonine-protein kinase SIK2 (Homo sapiens, UniProt Q9H0K1). The assay is described as follows: Navigating the Kinome. Panel member name: SIK2. It counts as functional.
In assay [15] the target is Serine/threonine-protein kinase MRCK alpha (Homo sapiens, UniProt Q5VT25). It counts as functional.
Assay [16] has as its target Serine/threonine-protein kinase Nek4 (Homo sapiens, UniProt P51957). The format is functional.
Assay [17] concerns the target MAP kinase-activated protein kinase 5 (Homo sapiens, UniProt Q8IW41). It counts as functional.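 Further: measured as one member of a kinome panel.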
The target in assay [18] is Casein kinase I isoform gamma-1 (Homo sapiens, UniProt Q9HCP0). The format is functional.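 Further: measured as the CSNK1G1 member of a kinome profiling panel.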
The target of a further assay is SRSF protein kinase 1 (Homo sapiens, UniProt Q96SB4). It counts as functional.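 Further: measured as one member of a kinome-wide kinase profiling panel.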
The target in assay [19] is Mitogen-activated protein kinase 13 (Homo sapiens, UniProt O15264). It counts as functional.
In assay [20] the target is Serine/threonine-protein kinase TBK1 (Homo sapiens, UniProt Q9UHD2). The assay is described as follows: Navigating the Kinome. Panel member name: TBK1. The format is functional.
Sequence of Serine/threonine-protein kinase TBK1 (Q9UHD2 whole entry): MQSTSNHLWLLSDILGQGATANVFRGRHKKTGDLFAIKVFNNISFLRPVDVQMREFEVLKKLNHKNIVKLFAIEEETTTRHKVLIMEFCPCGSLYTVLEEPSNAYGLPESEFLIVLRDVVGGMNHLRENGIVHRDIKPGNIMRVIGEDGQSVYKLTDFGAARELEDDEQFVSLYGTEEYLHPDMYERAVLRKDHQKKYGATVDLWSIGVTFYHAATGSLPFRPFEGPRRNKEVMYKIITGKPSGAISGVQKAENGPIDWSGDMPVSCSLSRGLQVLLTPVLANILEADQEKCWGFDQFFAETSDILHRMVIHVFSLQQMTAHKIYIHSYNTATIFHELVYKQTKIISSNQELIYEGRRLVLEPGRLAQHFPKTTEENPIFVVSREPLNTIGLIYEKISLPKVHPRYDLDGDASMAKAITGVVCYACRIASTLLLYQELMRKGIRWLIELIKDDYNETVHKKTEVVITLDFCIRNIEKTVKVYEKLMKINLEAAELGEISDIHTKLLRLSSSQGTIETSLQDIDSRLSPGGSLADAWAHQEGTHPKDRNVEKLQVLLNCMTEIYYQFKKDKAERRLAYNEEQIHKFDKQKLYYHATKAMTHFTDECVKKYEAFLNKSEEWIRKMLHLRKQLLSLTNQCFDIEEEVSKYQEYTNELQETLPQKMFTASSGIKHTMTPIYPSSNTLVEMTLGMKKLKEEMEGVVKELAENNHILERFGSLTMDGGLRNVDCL
For assay [21], the target named is cAMP-dependent protein kinase catalytic subunit PRKX (Homo sapiens, UniProt P51817). The format is functional.
In assay [22] the target is Macrophage-stimulating protein receptor (Homo sapiens, UniProt Q04912). The assay is described as follows: Navigating the Kinome. Panel member name: MST1R. It counts as functional.
The target in assay [23] is Inhibitor of nuclear factor kappa-B kinase subunit epsilon (Homo sapiens, UniProt Q14164). The assay is described as follows: Navigating the Kinome. Panel member name: IKBKE. The format is functional.
Sequence of Inhibitor of nuclear factor kappa-B kinase subunit epsilon (Q14164 whole entry): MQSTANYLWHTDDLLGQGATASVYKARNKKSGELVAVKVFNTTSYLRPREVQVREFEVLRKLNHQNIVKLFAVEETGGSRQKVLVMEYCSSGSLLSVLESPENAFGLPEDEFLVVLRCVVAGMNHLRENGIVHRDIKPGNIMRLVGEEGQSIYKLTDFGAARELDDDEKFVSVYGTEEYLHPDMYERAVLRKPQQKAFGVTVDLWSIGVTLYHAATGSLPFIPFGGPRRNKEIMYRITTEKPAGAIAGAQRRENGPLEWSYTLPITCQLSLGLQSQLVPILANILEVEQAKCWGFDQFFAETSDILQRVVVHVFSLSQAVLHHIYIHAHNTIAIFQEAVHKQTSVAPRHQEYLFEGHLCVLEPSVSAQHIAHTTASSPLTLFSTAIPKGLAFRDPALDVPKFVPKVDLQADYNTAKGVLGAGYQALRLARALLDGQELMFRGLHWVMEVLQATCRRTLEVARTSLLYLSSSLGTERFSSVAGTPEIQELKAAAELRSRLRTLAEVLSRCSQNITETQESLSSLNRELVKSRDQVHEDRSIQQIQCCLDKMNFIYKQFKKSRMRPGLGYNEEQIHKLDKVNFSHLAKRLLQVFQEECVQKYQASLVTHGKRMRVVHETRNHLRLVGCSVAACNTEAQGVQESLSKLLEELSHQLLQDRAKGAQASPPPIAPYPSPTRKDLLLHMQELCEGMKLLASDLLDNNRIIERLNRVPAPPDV
For assay [24], the target named is DNA dC->dU-editing enzyme APOBEC-3G (Homo sapiens, UniProt Q9HC16). The assay is described as follows: Dose Response confirmation of small molecule APOBEC3G DNA Deaminase Inhibitors via a fluorescence-based single-stranded DNA deaminase assay. [Related pubchem assays (depositor defined):AID493012, AID493028]. It counts as functional.
Sequence of DNA dC->dU-editing enzyme APOBEC-3G (Q9HC16 whole entry): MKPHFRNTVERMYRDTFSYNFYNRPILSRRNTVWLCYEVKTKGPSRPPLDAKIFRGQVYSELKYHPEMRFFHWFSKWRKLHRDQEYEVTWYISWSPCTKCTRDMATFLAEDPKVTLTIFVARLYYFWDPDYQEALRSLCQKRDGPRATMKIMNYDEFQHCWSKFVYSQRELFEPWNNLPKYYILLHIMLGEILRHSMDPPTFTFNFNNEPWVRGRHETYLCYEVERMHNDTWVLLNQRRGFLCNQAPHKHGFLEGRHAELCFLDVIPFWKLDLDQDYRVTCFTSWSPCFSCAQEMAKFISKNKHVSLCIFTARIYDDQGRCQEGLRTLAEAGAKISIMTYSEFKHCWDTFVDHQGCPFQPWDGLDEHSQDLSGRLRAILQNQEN
For assay [25], the target named is Intestinal-type alkaline phosphatase (Homo sapiens, UniProt P09923). The assay is described as follows: inhibition of human intestinal alkaline phosphatase – biochemical, dose response (AID 488876). The format is functional.

Structures are written as SMILES. The source made the active and inactive calls.

Turning to `COc1cccc2c1NC(C(=O)O)C1CC=CC21` (centres undefined), the IC50 in assay [1] is 13.2 µM (active); in assay [3] it was 6.26 µM (active); in assay [4], 15.4 µM (active); in assay [5] it was 4.46 µM (active). For the same molecule, the EC50 in assay [2] was 8.25 µM (active).
For the molecule `CC(C)(C)c1cc[n+](C2=C([N-]S(=O)(=O)c3cccs3)C(=O)c3ccccc3C2=O)cc1`, on Streptokinase A, the EC50 was 3.8 µM (active).
In the case of `CCc1ccc(S(=O)(=O)/N=C2\C=C(Nc3ccc(O)cc3)C(=O)c3ccccc32)cc1`, the IC50 at Nonstructural protein 1 is 5.88 µM (active); at Beta-galactosidase, 41.3 µM (inactive). In addition, the EC50 in [6] is 3.33 µM (active).
`Cc1ccc(F)c(NC(=O)Nc2ccc(-c3cccc4[nH]nc(N)c34)cc2)c1` [LINIFANIB]: the Ki in assay [7] is > 3.98 µM (inactive); in assay [8], > 5.01 µM (inactive); in assay [9], > 3.16 µM (inactive); in [10], > 6.31 µM (inactive); in assay [11] it was > 7.94 µM (inactive); in assay [12] it was > 3.98 µM (inactive). Also, the inhibition constant Ki in assay [13] is 5.01 µM (active); in assay [14] it was > 3.98 µM (inactive); in assay [15], > 10 µM (inactive); in assay [16] it was > 6.31 µM (inactive); in [17] it was > 1.58 µM (inactive); in assay [18] it was 5.01 µM (active). Moreover, the Ki at SRSF protein kinase 1 is 7.94 µM (active); in assay [19] it was 2.51 µM (active).
In the case of `COc1c(-c2nc3ccccc3[nH]2)c(O)cc2oc(C)cc(=O)c12`, the Ki in assay [20] is 1.58 µM (active); in assay [21], > 3.16 µM (inactive); in assay [22], 1.58 µM (active); in assay [23] it was 2 µM (active).
`O=C1/C(=C\c2cccc(O)c2O)SC(=S)N1Cc1ccccc1`: the IC50 was 47.2 µM (active) in assay [24] and > 100 µM (inactive) in assay [25].
